Assay results: BindingDB's records for PubMed 20126400 (University of Oklahoma, 2010)

Tests used:
Test in all cases: Ray2010 Assay 74
[1] = biological target: Beta-1 adrenergic receptor (Homo sapiens, UniProt P08588)
From the text: (§1) Table S2 shows raw Ki data for the current study combined with data collected from the literature for the ten additional compounds.

[2] = biological target: T1, Alpha-1B adrenergic receptor (Homo sapiens, UniProt P35368)
T1 sequence (P35368 whole entry): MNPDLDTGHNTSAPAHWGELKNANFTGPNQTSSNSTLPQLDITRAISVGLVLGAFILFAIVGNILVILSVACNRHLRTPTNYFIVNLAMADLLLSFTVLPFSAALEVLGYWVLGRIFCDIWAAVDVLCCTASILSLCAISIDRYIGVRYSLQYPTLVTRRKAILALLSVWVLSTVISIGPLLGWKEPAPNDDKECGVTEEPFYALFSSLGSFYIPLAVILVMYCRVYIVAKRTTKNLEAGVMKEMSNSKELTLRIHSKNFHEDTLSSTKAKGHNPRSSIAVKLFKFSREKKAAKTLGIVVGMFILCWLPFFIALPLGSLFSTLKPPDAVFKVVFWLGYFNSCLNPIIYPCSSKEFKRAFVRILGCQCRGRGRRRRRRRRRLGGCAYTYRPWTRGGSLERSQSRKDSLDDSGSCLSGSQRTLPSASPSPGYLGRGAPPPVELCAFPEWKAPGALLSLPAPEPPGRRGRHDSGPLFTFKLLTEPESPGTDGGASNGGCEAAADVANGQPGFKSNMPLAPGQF
From the text: as §1

Histamine H4 receptor = Histamine H4 receptor (Homo sapiens, UniProt Q9H3N8)
Histamine H4 receptor, sequence (Q9H3N8 whole entry): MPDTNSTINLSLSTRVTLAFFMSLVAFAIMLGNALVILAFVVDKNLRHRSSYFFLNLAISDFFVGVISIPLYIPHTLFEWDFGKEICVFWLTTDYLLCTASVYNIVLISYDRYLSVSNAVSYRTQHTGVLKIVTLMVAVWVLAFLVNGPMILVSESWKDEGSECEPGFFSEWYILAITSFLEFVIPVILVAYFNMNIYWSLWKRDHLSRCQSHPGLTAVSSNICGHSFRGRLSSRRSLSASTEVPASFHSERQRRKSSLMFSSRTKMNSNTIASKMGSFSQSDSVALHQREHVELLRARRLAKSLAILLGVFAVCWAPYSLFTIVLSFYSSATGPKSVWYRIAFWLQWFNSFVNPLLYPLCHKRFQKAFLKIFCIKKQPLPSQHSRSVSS
From the text: as §1

[3] = biological target: 5-hydroxytryptamine receptor 6 (Homo sapiens, UniProt P50406)
5-hydroxytryptamine receptor 6, sequence (P50406 whole entry): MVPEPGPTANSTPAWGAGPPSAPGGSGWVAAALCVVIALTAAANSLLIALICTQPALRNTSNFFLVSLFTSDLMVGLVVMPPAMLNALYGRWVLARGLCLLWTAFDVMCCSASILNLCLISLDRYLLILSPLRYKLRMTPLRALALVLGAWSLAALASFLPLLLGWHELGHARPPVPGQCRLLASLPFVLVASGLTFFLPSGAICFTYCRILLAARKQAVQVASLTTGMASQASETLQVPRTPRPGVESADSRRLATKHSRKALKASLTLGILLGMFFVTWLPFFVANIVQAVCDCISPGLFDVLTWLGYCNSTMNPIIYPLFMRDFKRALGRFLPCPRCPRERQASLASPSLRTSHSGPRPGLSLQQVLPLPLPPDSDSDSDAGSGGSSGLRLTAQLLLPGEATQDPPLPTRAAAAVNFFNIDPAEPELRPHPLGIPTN
From the text: as §1

D(2) dopamine receptor = D(2) dopamine receptor (Homo sapiens, UniProt P14416)
D(2) dopamine receptor, sequence (P14416 whole entry): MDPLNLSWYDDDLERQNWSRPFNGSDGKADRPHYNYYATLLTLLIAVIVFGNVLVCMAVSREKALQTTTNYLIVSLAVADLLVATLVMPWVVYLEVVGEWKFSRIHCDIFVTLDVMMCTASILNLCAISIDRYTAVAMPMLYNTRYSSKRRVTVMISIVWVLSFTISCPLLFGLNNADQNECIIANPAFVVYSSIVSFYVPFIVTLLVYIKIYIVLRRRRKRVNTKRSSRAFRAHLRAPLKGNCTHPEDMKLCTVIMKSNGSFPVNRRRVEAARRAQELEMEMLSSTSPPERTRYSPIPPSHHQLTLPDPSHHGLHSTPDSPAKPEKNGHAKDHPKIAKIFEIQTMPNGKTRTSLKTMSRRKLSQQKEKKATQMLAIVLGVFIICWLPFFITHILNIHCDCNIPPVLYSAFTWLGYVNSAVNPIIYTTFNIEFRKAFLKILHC
From the text: as §1

[4] = biological target: 5-hydroxytryptamine receptor 1D (Homo sapiens, UniProt P28221)
5-hydroxytryptamine receptor 1D, sequence (P28221 whole entry): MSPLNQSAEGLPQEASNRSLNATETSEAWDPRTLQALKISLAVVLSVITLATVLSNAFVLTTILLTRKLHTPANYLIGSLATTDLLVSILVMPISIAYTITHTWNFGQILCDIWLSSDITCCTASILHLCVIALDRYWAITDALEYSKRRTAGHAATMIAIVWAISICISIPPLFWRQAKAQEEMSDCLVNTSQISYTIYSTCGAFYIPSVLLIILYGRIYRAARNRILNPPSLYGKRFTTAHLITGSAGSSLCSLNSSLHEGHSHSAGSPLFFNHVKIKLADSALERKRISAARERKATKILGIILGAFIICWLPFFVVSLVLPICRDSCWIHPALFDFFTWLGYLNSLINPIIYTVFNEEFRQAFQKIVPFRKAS
From the text: as §1

[5] = biological target: T2, Muscarinic acetylcholine receptor M5 (Homo sapiens, UniProt P08912)
T2 sequence (P08912 whole entry): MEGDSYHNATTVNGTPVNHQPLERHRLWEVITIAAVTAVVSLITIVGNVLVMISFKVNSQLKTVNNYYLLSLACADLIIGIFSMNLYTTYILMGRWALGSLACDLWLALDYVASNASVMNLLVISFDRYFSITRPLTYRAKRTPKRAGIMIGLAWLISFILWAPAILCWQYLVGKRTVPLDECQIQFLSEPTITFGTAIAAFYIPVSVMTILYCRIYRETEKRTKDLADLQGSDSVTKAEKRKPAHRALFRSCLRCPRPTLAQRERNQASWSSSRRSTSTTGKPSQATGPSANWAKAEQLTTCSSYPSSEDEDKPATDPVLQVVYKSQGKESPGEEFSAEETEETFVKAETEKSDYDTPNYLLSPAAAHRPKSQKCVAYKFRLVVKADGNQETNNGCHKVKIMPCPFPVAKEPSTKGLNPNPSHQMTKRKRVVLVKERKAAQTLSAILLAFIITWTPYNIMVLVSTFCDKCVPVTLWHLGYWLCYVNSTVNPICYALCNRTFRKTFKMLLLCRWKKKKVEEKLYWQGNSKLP
From the text: as §1

[6] = biological target: 5-hydroxytryptamine receptor 1E (Homo sapiens, UniProt P28566)
5-hydroxytryptamine receptor 1E, sequence (P28566 whole entry): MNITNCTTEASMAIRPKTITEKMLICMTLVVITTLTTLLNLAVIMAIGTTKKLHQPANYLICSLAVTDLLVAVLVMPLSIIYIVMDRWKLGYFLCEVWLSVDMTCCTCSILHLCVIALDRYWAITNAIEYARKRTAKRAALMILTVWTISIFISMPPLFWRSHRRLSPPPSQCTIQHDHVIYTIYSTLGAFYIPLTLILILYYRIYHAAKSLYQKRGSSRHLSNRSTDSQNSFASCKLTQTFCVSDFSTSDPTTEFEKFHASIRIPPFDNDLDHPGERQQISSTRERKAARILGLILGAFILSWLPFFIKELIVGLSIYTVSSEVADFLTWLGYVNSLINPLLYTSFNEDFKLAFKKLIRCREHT
From the text: as §1

[7] = biological target: T3, 5-hydroxytryptamine receptor 3A (Homo sapiens, UniProt P46098)
T3 sequence (P46098 whole entry): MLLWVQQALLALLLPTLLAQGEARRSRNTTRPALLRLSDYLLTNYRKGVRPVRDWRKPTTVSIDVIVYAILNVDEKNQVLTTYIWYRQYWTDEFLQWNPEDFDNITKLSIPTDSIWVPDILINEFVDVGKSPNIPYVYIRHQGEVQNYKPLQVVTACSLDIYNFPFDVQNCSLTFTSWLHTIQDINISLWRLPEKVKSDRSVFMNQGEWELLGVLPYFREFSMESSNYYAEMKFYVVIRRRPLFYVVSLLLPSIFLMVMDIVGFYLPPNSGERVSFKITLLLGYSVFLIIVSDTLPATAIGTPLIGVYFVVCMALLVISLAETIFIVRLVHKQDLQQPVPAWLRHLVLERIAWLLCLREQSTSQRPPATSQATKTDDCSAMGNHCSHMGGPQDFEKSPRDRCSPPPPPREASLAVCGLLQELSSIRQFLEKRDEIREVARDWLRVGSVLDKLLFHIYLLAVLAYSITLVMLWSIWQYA
From the text: as §1

[8] = biological target: T4, Muscarinic acetylcholine receptor M2 (Homo sapiens, UniProt P08172)
T4 sequence (P08172 whole entry): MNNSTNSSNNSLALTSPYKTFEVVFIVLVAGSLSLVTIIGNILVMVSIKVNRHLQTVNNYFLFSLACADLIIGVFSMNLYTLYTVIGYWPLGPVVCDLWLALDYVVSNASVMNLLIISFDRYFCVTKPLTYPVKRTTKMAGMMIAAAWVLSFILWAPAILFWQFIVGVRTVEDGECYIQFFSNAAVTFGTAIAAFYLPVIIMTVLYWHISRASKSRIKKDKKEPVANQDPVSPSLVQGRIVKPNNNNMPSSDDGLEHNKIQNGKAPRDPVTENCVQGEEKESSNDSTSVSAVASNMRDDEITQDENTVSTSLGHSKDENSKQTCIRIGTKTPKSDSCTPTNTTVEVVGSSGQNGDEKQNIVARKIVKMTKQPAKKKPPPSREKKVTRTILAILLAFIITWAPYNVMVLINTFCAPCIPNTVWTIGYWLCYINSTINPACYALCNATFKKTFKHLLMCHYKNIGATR
From the text: as §1

[9] = biological target: T5, 5-hydroxytryptamine receptor 1A (Homo sapiens, UniProt P08908)
T5 sequence (P08908 whole entry): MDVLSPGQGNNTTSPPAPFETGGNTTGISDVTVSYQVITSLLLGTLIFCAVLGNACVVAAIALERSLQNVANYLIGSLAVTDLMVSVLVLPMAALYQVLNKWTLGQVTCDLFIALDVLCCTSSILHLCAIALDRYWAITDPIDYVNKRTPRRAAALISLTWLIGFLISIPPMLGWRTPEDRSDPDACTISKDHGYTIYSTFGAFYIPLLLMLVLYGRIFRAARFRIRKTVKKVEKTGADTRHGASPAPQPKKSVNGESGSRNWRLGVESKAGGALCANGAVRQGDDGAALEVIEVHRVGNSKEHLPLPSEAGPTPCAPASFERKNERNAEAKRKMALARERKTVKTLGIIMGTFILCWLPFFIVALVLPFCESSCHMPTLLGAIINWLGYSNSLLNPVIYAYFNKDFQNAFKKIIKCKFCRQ
From the text: as §1

Histamine H1 receptor = Histamine H1 receptor (Homo sapiens, UniProt P35367)
Histamine H1 receptor, sequence (P35367 whole entry): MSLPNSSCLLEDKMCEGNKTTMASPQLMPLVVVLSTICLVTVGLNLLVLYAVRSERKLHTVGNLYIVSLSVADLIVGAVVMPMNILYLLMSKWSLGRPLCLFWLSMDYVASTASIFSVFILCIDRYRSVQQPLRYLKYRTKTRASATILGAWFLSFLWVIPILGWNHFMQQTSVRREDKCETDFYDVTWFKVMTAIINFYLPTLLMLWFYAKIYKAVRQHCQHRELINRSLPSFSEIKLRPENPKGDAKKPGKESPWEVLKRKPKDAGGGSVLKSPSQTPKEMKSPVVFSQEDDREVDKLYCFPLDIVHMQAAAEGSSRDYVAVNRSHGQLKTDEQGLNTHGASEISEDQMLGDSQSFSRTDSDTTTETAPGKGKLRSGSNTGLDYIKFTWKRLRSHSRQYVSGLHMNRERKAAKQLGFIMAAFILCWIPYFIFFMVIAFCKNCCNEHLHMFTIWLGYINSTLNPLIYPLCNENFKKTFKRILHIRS
From the text: as §1

[10] = biological target: Glutamate receptor ionotropic, NMDA 2A (Homo sapiens, UniProt Q12879)
Glutamate receptor ionotropic, NMDA 2A, sequence (Q12879 whole entry): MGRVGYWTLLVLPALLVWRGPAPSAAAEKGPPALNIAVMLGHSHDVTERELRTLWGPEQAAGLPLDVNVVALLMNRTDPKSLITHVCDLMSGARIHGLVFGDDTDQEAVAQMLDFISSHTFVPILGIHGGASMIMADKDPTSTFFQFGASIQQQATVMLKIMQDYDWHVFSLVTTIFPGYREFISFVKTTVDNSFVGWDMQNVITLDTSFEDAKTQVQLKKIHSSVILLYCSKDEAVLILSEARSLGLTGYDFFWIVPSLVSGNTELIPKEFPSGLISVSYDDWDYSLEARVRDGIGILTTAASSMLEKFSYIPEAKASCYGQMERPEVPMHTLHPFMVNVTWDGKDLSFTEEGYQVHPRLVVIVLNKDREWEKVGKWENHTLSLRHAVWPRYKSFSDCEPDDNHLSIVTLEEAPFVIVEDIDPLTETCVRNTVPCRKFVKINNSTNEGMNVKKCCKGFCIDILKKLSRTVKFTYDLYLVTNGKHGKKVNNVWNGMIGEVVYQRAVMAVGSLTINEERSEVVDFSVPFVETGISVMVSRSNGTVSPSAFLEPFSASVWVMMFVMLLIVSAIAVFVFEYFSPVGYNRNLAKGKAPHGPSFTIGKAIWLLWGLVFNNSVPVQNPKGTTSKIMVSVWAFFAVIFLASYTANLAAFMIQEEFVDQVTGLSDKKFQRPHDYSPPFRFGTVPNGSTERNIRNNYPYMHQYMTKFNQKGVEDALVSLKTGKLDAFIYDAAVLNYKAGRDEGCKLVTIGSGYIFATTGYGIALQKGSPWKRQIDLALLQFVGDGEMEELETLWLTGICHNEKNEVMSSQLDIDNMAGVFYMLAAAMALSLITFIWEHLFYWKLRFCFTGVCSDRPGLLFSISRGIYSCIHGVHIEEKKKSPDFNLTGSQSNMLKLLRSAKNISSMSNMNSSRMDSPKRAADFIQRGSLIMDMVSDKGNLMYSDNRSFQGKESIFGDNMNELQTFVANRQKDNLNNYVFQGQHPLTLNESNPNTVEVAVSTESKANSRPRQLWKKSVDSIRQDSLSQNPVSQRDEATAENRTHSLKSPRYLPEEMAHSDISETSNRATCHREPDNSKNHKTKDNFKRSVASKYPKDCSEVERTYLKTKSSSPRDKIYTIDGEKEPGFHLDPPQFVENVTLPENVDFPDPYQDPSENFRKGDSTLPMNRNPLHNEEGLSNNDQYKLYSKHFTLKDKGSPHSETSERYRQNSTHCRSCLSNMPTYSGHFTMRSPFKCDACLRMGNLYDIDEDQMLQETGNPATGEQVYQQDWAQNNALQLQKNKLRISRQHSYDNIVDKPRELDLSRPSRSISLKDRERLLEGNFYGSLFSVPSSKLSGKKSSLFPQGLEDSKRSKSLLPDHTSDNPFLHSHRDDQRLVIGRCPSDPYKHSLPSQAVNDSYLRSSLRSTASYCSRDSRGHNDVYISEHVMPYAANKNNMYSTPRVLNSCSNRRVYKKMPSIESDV
From the text: as §1

Beta-1 adrenergic receptor, sequence (P08588 whole entry): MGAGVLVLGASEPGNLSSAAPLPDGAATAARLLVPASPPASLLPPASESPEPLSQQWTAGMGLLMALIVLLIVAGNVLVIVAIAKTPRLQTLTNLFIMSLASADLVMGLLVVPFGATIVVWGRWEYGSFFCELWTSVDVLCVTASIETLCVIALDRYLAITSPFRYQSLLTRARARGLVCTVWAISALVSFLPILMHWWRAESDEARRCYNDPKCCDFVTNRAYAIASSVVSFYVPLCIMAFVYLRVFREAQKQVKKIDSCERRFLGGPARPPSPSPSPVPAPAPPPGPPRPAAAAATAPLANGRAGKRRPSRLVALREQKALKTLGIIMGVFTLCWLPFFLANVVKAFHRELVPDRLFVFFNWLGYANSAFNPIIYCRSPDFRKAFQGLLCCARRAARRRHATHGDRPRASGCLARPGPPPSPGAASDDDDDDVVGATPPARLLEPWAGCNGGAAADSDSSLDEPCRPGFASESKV

Compound | Ki [1] | Ki [2] | Ki (Histamine H4 receptor) | Ki [3] | Ki (D(2) dopamine receptor) | Ki [4] | Ki [5] | Ki [6] | Ki [7] | Ki [8] | Ki [9] | Ki (Histamine H1 receptor) | Ki [10]
CC(N)Cc1ccc2c(c1)OCO2 (stereo unspecified) | > 10 µM | > 10 µM | > 10 µM | > 10 µM | > 10 µM | > 10 µM | > 10 µM | > 10 µM | > 10 µM | > 10 µM | 3.76 µM | – | –
COc1cc(CCN)c(OC)cc1Br | – | > 10 µM | > 10 µM | 0.32 µM | 3.37 µM | 0.0263 µM | > 10 µM | 0.12 µM | > 10 µM | > 10 µM | 0.241 µM | > 10 µM | > 10 µM
CC[C@H]1C[C@@H]2C[C@H]3c4[nH]c5ccc(OC)cc5c4CCN(C2)[C@@H]13 | > 10 µM | – | – | – | > 10 µM | > 10 µM | – | – | > 10 µM | 39.4 µM | > 10 µM | > 10 µM | 2 µM
CN(C)CCc1c[nH]c2ccccc12 [2-(1H-indol-3-yl)-N,N-dimethylethanamine] | > 10 µM | 0.974 µM | > 10 µM | 0.487 µM | > 10 µM | 0.093 µM | > 10 µM | 0.456 µM | > 10 µM | > 10 µM | – | – | –
CCc1cc(OC)c(CCN)cc1OC [2-(2,5-dimethoxy-4-ethylphenyl)ethylamine] | > 10 µM | > 10 µM | > 10 µM | 2.97 µM | 3.34 µM | 0.0732 µM | 1.73 µM | 0.626 µM | > 10 µM | > 10 µM | – | > 10 µM | > 10 µM
CCSc1cc(OC)c(CC(C)N)cc1OC (stereo unspecified) [2-(4-Ethylsulfanyl-2,5-dimethoxy-phenyl)-1-methyl-ethylamine] | 6.79 µM | > 10 µM | > 10 µM | – | > 10 µM | 1.53 µM | 8.02 µM | – | > 10 µM | > 10 µM | 1.67 µM | > 10 µM | > 10 µM
NCCc1c2c(c(Br)c3c1OCC3)OCC2 [2-(8-Bromo-2,3,6,7-tetrahydro-benzo[1,2-b;4,5-b']difuran-4-yl)-ethylamine] | > 10 µM | > 10 µM | > 10 µM | 0.15 µM | 6.84 µM | 0.0014 µM | 0.873 µM | 0.11 µM | > 10 µM | 2.03 µM | 0.147 µM | 5.75 µM | –
CCc1[nH]c2ccc(OC)cc2c1CCN(C)C [2-ethyl-5-methoxy-N,N-dimethyltryptamine] | – | – | > 10 µM | – | > 10 µM | – | > 10 µM | – | – | > 10 µM | – | > 10 µM | > 10 µM
COC(=O)[C@@H]1C[C@H](OC(C)=O)C(=O)[C@H]2[C@@]1(C)CC[C@H]1C(=O)O[C@H](c3ccoc3)C[C@]21C [2S,4aR,6a(R,7R,9S,10aS,10bR)-9-(acetyloxy)-2-(furan-3-yl)dodecahydro-6a,10b-dimethyl-4,10-dioxo-2H-naphtho[2,1-c]pyran-7-carboxylic acid methyl ester] | > 10 µM | > 10 µM | – | > 10 µM | > 10 µM | > 10 µM | > 10 µM | > 10 µM | – | > 10 µM | > 10 µM | > 10 µM | –
COc1ccc2[nH]cc(CCN(C)C)c2c1 [3-(2-DIMETHYLAMINOETHYL)-5-METHOXYINDOLE] | > 10 µM | > 10 µM | – | – | 3.56 µM | – | > 10 µM | – | – | > 10 µM | – | – | –
CN(C)CCc1c[nH]c2cccc(O)c12 [4-hydroxy-N,N-dimethyltryptamine] | > 10 µM | > 10 µM | > 10 µM | – | > 10 µM | – | – | – | > 10 µM | > 10 µM | – | > 10 µM | –
COc1cc(OC)c(OC)cc1CC(C)N (stereo not drawn) [(+/-)1-Methyl-2-(2,4,5-trimethoxy-phenyl)-ethylamine] | > 10 µM | > 10 µM | > 10 µM | > 10 µM | > 10 µM | > 10 µM | > 10 µM | > 10 µM | > 10 µM | > 10 µM | > 10 µM | 1.41 µM | –
COc1ccc2[nH]c(C)c(CCN(C)C)c2c1 [[2-(5-Methoxy-2-methyl-1H-indol-3-yl)-ethyl]-dimethyl-amine (C2H2O)] | – | – | > 10 µM | – | > 10 µM | – | > 10 µM | – | – | > 10 µM | – | > 10 µM | > 10 µM
CCN(CC)C(=O)[C@@H]1C=C2c3cccc4[nH]cc(c34)C[C@H]2N(C)C1 [[N-methyl-3H]LSD] | – | 8.68 µM | – | – | 0.11 µM | 0.0078 µM | – | – | > 10 µM | – | – | – | > 10 µM
C[C@@H]1C[C@H](C)N1C(=O)C1C=C2c3cccc4[nH]cc(c34)C[C@H]2N(C)C1 (stereo partly drawn) [cis-2a] | – | > 10 µM | – | 0.0129 µM | 0.0491 µM | – | – | 0.195 µM | > 10 µM | – | 0.0023 µM | 0.501 µM | > 10 µM
CNC(C)Cc1ccc2c(c1)OCO2 (stereo unspecified) [mdma] | > 10 µM | > 10 µM | – | > 10 µM | > 10 µM | > 10 µM | 6.33 µM | > 10 µM | > 10 µM | > 10 µM | > 10 µM | > 10 µM | > 10 µM
C[C@@H]1C[C@@H](C)N1C(=O)C1C=C2c3cccc4[nH]cc(c34)C[C@H]2N(C)C1 (stereo partly specified) [rr-2b] | – | > 10 µM | – | 0.0605 µM | 0.264 µM | 0.018 µM | – | 0.138 µM | > 10 µM | – | 0.0052 µM | 1.45 µM | > 10 µM
